According to patent US12589099B2 (priority 2021, dated 2026):

Key:
[1] = 43% RH (RT), up to 5 days; cited from earlier work
[2] = system: Aspergillus brasiliensis (ATCC No. 16404); assay: USP 51 Preservative Challenge Test; type: cell-based; details: A. brasiliensis ATCC 16404; initial Log10 5.3
Procedure: (§1) In order to assess the anti-microbial properties of ALPHA-1062, the USP (US Pharmacopeia) Chapter 51 Preservative Challenge Test (USP 51) was employed. The USP 51 is a common method used to gauge preservative effectiveness. Much like a Preservative Challenge Screen, it is used to evaluate the effect of preservatives in cosmetics, personal care products, and drug products. Preservatives are typically antimicrobial ingredients that are added to aqueous product formulations to help maintain the safety of the product by inhibiting the growth and reducing the number of microbial contaminants.
(§2) In the context of the present invention, ALPHA-1062 (in the form of the gluconate salt) was assessed in place of (as) a preservative. No additional preservative was added to the ALPHA-1062 gluconate preparation, rather an anti-microbial effect of the agent itself (ALPHA-1062) was assessed. ALPHA-1062 is therefore the anti-microbial agent in the assay and experiments described below.
(§3) The USP 51 challenge test utilizes 5 microorganisms (3 bacteria and 2 fungi) for challenge testing. Each of the microorganisms are known strains of pathogenic microorganisms and they represent a wide range of microbial physiologies.
(§4) Cultures of the following microorganisms were applied, as per standard guidelines for USP 51: Candida albicans (ATCC No. 10231), Aspergillus brasiliensis (ATCC No. 16404), Escherichia coli (ATCC No. 8739), Pseudomonas aeruginosa (ATCC No. 9027), and Staphylococcus aureus (ATCC No. 6538).
(§5) The test was conducted in five sterile, capped bacteriological containers of suitable size into which a sufficient volume of product has been transferred. Each container was inoculated with one of the prepared and standardized inoculums and was mixed accordingly. The volume of the suspension inoculum used was between 0.5% and 1.0% of the volume of the product. The concentration of test microorganisms that was added to the product was such that the final concentration of the test preparation after inoculation was between 1×10^5 and 1×10^6 CFU per mL of the product, according to standard guidelines for Category 2 products.
(§6) The initial concentration of viable microorganisms in each test preparation was estimated based on the concentration of microorganisms in each of the standardized inoculums, as determined by the plate-count method.
(§7) The inoculated containers were incubated at 22.5±2.5° C. and each container was sampled at the appropriate intervals, as specified in Table 3. Any changes observed in the appearance of the culture was recorded at these intervals. By using the plate-count procedure, the number of CFU present in each test preparation was determined for the applicable intervals.
(§8) An inactivator (neutralizer) of the specific antimicrobial was incorporated in the plate count or in the appropriate dilution prepared for plating. These conditions were determined in the validation study for that sample based upon the conditions of media and microbial recovery incubation times listed in Table 2. Using the calculated concentrations of CFU per mL present at the start of the test, the change in log 10 values of the concentration of CFU per mL for each microorganism was calculated at the applicable test intervals, and the changes were expressed in terms of log reductions.
(§9) The USP Criteria for Category 2 were employed in order to determine the presence of an anti-microbial effect. For bacteria, an antimicrobial effect is evident when at least a 2.0 log reduction from the initial count is evident at 14 days and no increase is evident from the 14-day count at 28 days. For yeast and molds, an antimicrobial effect is evident when no increase from the initial calculated count is determined at 14 and 28 days.

[3] = system: Staphylococcus aureus (ATCC No. 6538); assay: USP 51 Preservative Challenge Test; type: cell-based; details: S. aureus ATCC 6538
Procedure: as §1, §2, §3, §4, §5, §6, §7, §8, §9

[4] = system: Pseudomonas aeruginosa (ATCC No. 9027); assay: USP 51 Preservative Challenge Test; type: cell-based; details: P. aeruginosa ATCC 9027
Procedure: as §1, §2, §3, §4, §5, §6, §7, §8, §9

[5] = system: Candida albicans (ATCC No. 10231); assay: USP 51 Preservative Challenge Test; type: cell-based; details: C. albicans ATCC 10231
Procedure: as §1, §2, §3, §4, §5, §6, §7, §8, §9

[6] = system: Escherichia coli (ATCC No. 8739); assay: USP 51 Preservative Challenge Test; type: cell-based; details: E. coli ATCC 8739
Procedure: as §1, §2, §3, §4, §5, §6, §7, §8, §9

[7] = system: 5 microorganisms (3 bacteria and 2 fungi); assay: USP 51 Preservative Challenge Test, overall assessment by USP Criteria for Category 2; type: cell-based; details: 14 and 28 days
Procedure: as §1
as §2, with “below. […]” for “below.”
as §7, with “applicable intervals. […]” for “applicable intervals.”

[8] = initial 4.0 × 10^5 CFU/mL (Log10 5.6), 22.5±2.5° C., no additional preservative
[9] = initial 2.9 × 10^5 CFU/mL (Log10 5.5), 22.5±2.5° C., no additional preservative
[10] = initial 6.7 × 10^5 CFU/mL (Log10 5.8), 22.5±2.5° C., no additional preservative
[11] = initial 9.1 × 10^5 CFU/mL (Log10 6.0), 22.5±2.5° C., no additional preservative

SMILES	solid state stability of the crystalline form [1]	Day 14 Log Reduction [2]	Day 28 Log Reduction [2]	Day 14 CFU/mL [3, 8]	Day 28 CFU/mL [3, 8]	Day 14 Log Reduction ([3]; initial Log10 5.6)	Day 28 Log Reduction ([3]; initial Log10 5.6)	Day 14 CFU/mL [4, 9]	Day 28 CFU/mL [4, 9]	Day 14 Log Reduction ([4]; initial Log10 5.5)	Day 28 Log Reduction ([4]; initial Log10 5.5)	Day 14 CFU/mL [5, 10]	Day 28 CFU/mL [5, 10]	Day 14 Log Reduction ([5]; initial Log10 5.8)	Day 28 Log Reduction ([5]; initial Log10 5.8)	Day 14 CFU/mL [6, 11]	Day 28 CFU/mL [6, 11]	Day 14 Log Reduction ([6]; initial Log10 6.0)	Day 28 Log Reduction ([6]; initial Log10 6.0)	anti-microbial effect against all 5 organisms tested in the USP 51 [7]
COc1ccc2c3c1O[C@H]1C[C@@H](OC(=O)c4ccccc4)C=C[C@@]31CCN(C)C2.O=C(O)C(O)C(O)C(O)C(O)CO [Form A]	kinetically stable																			
COc1ccc2c3c1O[C@H]1C[C@@H](OC(=O)c4ccccc4)C=C[C@@]31CCN(C)C2 [ALPHA-1062 Gluconate]		3.1	3.1	<10 CFU/mL	<10 CFU/mL	4.6	4.6	<10 CFU/mL	<10 CFU/mL	4.5	4.5	<10 CFU/mL	<10 CFU/mL	4.8	4.8	<10 CFU/mL	<10 CFU/mL	5.0	5.0	strong anti-microbial effect
